Reference: article PMC6062912, “The Evolutionary Conserved γ-Core Motif Influences the Anti-Candida Activity of the Penicillium chrysogenum Antifungal Protein PAF” (Frontiers in Microbiology, 2018)
≈ marks a conversion by molar mass, not a printed value. Read-outs that look alike come from different tables or passages of the source. Residues, ends and D or L forms follow the SMILES beside them.

Tests used:
Format in all cases: cell-based, Candida albicans
C. albicans [1] = conditions: 10 min exposure, mean ± SD, untreated control 1.8 ± 1.2%
Method: To analyze changes in cell size and to assess kinetics of cell death of C. albicans upon antifungal treatment flow cytometry was applied. For both experiments, 10^4 cells mL^-1 was incubated in 0.05× PDB with the desired AMP concentration for different time points. The incubation was performed in 1.5 mL reaction tubes at 30°C under continuous shaking at 800 rpm in a Thermomixer Comfort (Eppendorf). After incubation, the cells were centrifuged at 4°C with 3,000 ×g for 3 min. For cell size determination, the supernatant was removed and the cells were resuspended and fixed in PBS containing 3.7% (v/v) formaldehyde before changes in cell size were measured by plotting SSC against FSC. C. albicans that were incubated at 95°C for 120 min served as controls. Microscopic control-images were taken with a fluorescence microscope (Axioplan, Zeiss), equipped with a camera (Axiocam 503 mono, Zeiss) and excitation/emission filters (365/420 nm for blue fluorescence and 546/590 or 565/620 nm for red fluorescence, Zeiss). Image acquisition was performed with ZEN 2 microscope software (Zeiss, blue edition) and the cell area was measured with ImageJ 1.52d software ([Schindelin et al., 2012]).
For dead-cell staining, prior to fixation, the cells were incubated in the dark for 30 min at 4°C with 100 μL PBS containing 0.1 μL LIVE/DEAD^TM Fixable Far Red Dead Cell Stain (Thermo Fisher Scientific). The cells were then washed once in PBS and fixed in PBS containing 3.7% formaldehyde. Ethanol-inactivated dead C. albicans served as a positive staining control. The samples were then analyzed by FACS (FACSVerse Flow Cytometer, BD Biosciences), equipped with BD FACSuite software (v1.0.6.5230, BD Biosciences). Dead cells were detected at Excitation/Emission wavelength of 650/665 nm. Stained, live, and dead Candida cells were used as controls to discriminate populations and to set the gates.
To elucidate the AMPs candidacidal activities at an early stage and to compare their time and dose-dependent cell killing in more detail, fluorescence activated cell sorting (FACS) analysis with dead-cell staining was applied. To this end, C. albicans was exposed to 1× and 2× MIC of the respective AMPs for 10 min, stained with the dead-cell marker, and fixed with formaldehyde. With FACS analyses, 1.8 ± 1.2% dead cells were detected in the untreated control (Figure 3).

C. albicans biofilms = assay: Anti-biofilm activity, FDA fluorescence; conditions: AMP 0–40 μM for 24 h at 30°C; for concentration inhibiting cell metabolism in biofilm (FDA fluorescence): 24-h-old biofilms; for concentration with anti-biofilm (inhibitory) activity, extinction of FDA fluorescence: 1 h old (young) biofilms
Method: The antifungal activity against C. albicans biofilms was determined in 96-well microtiter plates (Nunclon Delta, Thermo Fisher Scientific). Cells (10^5) in 100 μL 0.05× PDB were distributed per well and plates were incubated at 37°C for up to 24 h to allow biofilm formation. After cell adherence, the microtiter plates were washed once with 0.05× PDB and the test substances were added in increasing concentrations in 100 μL 0.05× PDB per well. H2O2 served as a control for cell killing. The plates were further incubated at 30°C for 24 h. The wells were washed once with 0.05× PDB and 100 μL of FDA solution (40 μg mL^-1 in 0.05× PDB) was added to the wells. Wells containing only FDA solution (40 μg mL^-1 in 0.05× PDB) were used as blank background control. The plates were incubated for 1 h at 37°C in the dark before the fluorescence signal intensity was measured in a multi-mode microplate reader (FLUOstar Omega, BMG Labtech) with excitation and emission wavelengths of 485 and 520 nm. All experiments were prepared at least in duplicates and repeated at least twice.
Next, we analyzed the potential of the AMPs to inhibit C. albicans biofilm formation. Low susceptibility of biofilms to antifungal agents is often a limiting factor in anti-Candida treatment. To this end, C. albicans cells were distributed in 96-well microtiter plates, allowed to settle down, and to develop biofilms for 1 and 24 h. Then, planktonic cells were washed off and AMPs were added to the biofilms for another 24 h in a concentration range of 0–40 μM. The biofilms were then quantified by adding FDA to the wells. Metabolically active cells convert non-fluorescent FDA into highly fluorescent fluorescein by intracellular enzymatic activity ([Peeters et al., 2008]). The resulting fluorescence signal intensity from AMP-treated biofilms was measured and compared to untreated conditions. […] Twenty-four-hour-old biofilms, however, were resistant against PAF, PAF^var, and PAF^opt in the investigated concentration range (data not shown).

C. albicans [2] = conditions: 24 h
Method: Fungal strains used in this study are listed in Supplementary Table S1 and composition of growth media is given in Supplementary Table S2. All P. chrysogenum shaking cultures were inoculated with 2 × 10^8 conidia, in 200 mL defined minimal medium (PcMM) for protein expression or complete medium (CM) before transformation, and grown at 25°C as described ([Sonderegger et al., 2016]). For conidial suspension generation from surface cultures, P. chrysogenum was grown on PcMM agar at 25°C. C. albicans was used as PAF-sensitive model organism and was cultivated on yeast extract peptone dextrose (YPD) agar at 37°C. For growth inhibition and susceptibility assays, C. albicans was grown in 20-fold diluted potato dextrose broth (PDB, Sigma-Aldrich) at 30°C, pH 5.5 ([Huber et al., 2018]).
The MIC of all protein and peptide variants was determined on C. albicans with broth microdilution assays in 96-well microtiter plates (Nunclon Delta, Thermo Fisher Scientific). From a fresh C. albicans overnight culture on YPD agar, cells were harvested with an inoculation loop and suspended in 0.05× PDB (Sigma-Aldrich) ([Arendrup et al., 2016]). The cell number was determined with a counting chamber (Bürker) and the cell number was adjusted to 10^4 mL^-1. In each well, 10^3 cells were incubated with increasing concentrations of antifungal proteins or peptides in a final volume of 200 μL 0.05× PDB. The plates were incubated for 24 h at 30°C before the growth was determined by measuring the optical density (OD620nm) with a multi-mode microplate reader (FLUOstar Omega, BMG Labtech). The MIC was defined as the protein concentration that inhibited growth by ≥90% compared to the untreated control, which was referred as 100% growth.

SMILES | dead cells (cells killed), FACS dead-cell staining (C. albicans [1]; 1× MIC) [%] | dead cells (cells killed), FACS dead-cell staining (C. albicans [1]; 2× MIC) [%] | concentration inhibiting cell metabolism in biofilm (FDA fluorescence) (C. albicans biofilms) [µM] | concentration with anti-biofilm (inhibitory) activity, extinction of FDA fluorescence (C. albicans biofilms) [µM] | MIC (C. albicans [2]) [µM]
CC(=O)N[C@@H](CCCCN)C(=O)N[C@@H](Cc1ccc(O)cc1)C(=O)N[C@H](C(=O)NCC(=O)N[C@@H](CCCCN)C(=O)N[C@@H](CS)C(=O)N[C@@H](CCCCN)C(=O)N[C@H](C(=O)N[C@@H](CCCCN)C(=O)N[C@@H](CCCCN)C(=O)N[C@@H](CC(N)=O)C(=O)N[C@@H](CCCCN)C(=O)N[C@@H](CS)C(=O)N[C@@H](CCCCN)C(N)=O)[C@@H](C)O)[C@@H](C)O [Pγ^opt] (Ac-KYTGKCKTKKNKCK-NH2) | 11.7 ± 0.3 | 27.4 ± 1.3 | 10 | 10 | 
CC(=O)N[C@@H](CCCCN)C(=O)N[C@@H](Cc1ccc(O)cc1)C(=O)N[C@H](C(=O)NCC(=O)N[C@@H](CCCCN)C(=O)N[C@@H](CS)C(=O)N[C@@H](Cc1ccc(O)cc1)C(=O)N[C@@H](CCCCN)C(=O)N[C@@H](CCCCN)C(=O)N[C@@H](CCCCN)C(=O)N[C@@H](CC(N)=O)C(=O)N[C@@H](CCC(=O)O)C(=O)N[C@@H](CS)C(=O)N[C@@H](CCCCN)C(N)=O)[C@@H](C)O [Pγ^var] (Ac-KYTGKCYKKKNECK-NH2) | 13.2 ± 3.2 | 27.1 ± 5.6 | 20 | 10 | 2.5 (≈ 4.41 µg/mL)
